Laboratory results from paper PMC10394814, “Discovery and evaluation of active compounds from Xuanfei Baidu formula against COVID-19 via SARS-CoV-2 M^pro” (Chinese Medicine, 2023).

Key:
[1] = tested on: Omicron BA.2.3 variant; experiment: Antiviral activity assay (CPE) in Vero E6 cells, Omicron BA.2.3; format: cell-based, SARS-CoV-2; conditions: Severe acute respiratory syndrome coronavirus 2, Vero C1008, 48 h
[2] = tested on: Omicron BA.1.1 variant; experiment: Antiviral activity assay (CPE) in Vero E6 cells, Omicron BA.1.1; format: cell-based, SARS-CoV-2; conditions: Severe acute respiratory syndrome coronavirus 2, Vero C1008, 48 h

Structure (SMILES): C[C@@H]1O[C@@H](O[C@@H]2[C@@H](O)[C@H](OCCc3ccc(O)c(O)c3)O[C@H](CO)[C@H]2OC(=O)/C=C/c2ccc(O)c(O)c2)[C@H](O)[C@H](O)[C@H]1O [Acteoside]
- EC50 [1]: 70.4 µM
- EC50 [2]: 41.3 µM
